Laboratory results from patent publication US8273738B2, “Imidazole derivatives” (priority 2006, dated 2012).

Legend:
CB2 receptor = biological target: T1, CB2 receptor (Rattus norvegicus, UniProt Q9QZN9); assay: Cannabinoid CB2 receptor-binding activity ([3H]CP55940 binding experiment), rat spleen membrane specimen
T1 construct: from tissue; host or cells: rat spleen membrane specimen
T1 sequence (Q9QZN9 1-360): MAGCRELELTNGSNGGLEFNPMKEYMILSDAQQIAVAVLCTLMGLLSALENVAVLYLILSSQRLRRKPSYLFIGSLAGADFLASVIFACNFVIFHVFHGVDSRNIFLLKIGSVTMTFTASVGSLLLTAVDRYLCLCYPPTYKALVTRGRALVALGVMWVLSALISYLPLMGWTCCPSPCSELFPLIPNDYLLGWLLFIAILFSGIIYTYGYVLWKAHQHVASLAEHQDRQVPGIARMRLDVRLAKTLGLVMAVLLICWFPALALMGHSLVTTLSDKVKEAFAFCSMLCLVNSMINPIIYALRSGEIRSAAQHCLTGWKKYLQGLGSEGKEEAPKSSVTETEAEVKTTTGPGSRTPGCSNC
Experimental: A test was carried out according to the method of Hillard et al. [The Journal of Pharmacology and Experimental Therapeutics, vol. 289, p. 1427 (1999)]. A rat forebrain membrane specimen and a rat spleen membrane specimen were prepared and used in a binding experiment for a CB1 receptor and a binding experiment for a CB2 receptor, respectively. The membrane specimen (forebrain: final concentration of 0.5 mg of protein/mL, spleen: final concentration of 2 mg of protein/mL) was incubated together with a test compound and [^3H]CP55940 (manufactured by PerkinElmer) ((−)-cis-3-[2-hydroxy-[3,5-^3H]-4-(1,1-dimethylheptyl)phenyl]-trans-4-(3-hydroxypropyl)cyclohexanol)) (final concentration: 0.5 nmol/L) in an assay buffer (50 mmol/L Tris-HCl buffer (pH 7.4), 1 mmol/L EDTA and 3 mmol/L MgCl2) containing 0.1% bovine serum albumin at 25° C. for 1 hour, and the resulting mixture was filtered using a glass filter GF/C (manufactured by Whatman) treated with 1% polyethyleneimine. After the glass filter was washed with the assay buffer containing 0.2% bovine serum albumin, the radioactivity on the glass filter was measured using a liquid scintillation counter (TRI-CARB 2700TR, manufactured by Packard). The binding amount in the presence of 10 μmol/L […] (manufactured by Tocris) ((R)-(+)-[2,3-dihydro-5-methyl-3-(4-morpholinylmethyl)pyrrolo[1,2,3-de]-1,4-benzoxazin-6-yl]-1-naphthalenylmethanone) was considered to be a non-specific binding amount, and a difference between the total binding amount and the non-specific binding amount was considered to be a specific binding amount. The 50% inhibitory concentration (IC50 value) of the test compound against the specific binding was obtained, and the Ki value of the test substance was calculated from the 50% inhibitory concentration and the Kd value of the [^3H]CP55940 binding.

human CB2 receptor = biological target: T2, human CB2 receptor (Homo sapiens, UniProt P34972); assay: GTPγS binding experiment via human CB2 receptor (membrane fraction of CHO-K1 cells); format: biochemical; details: for Emax: read-out: Emax value (maximum effect of CP55940 as 100%)
T2 construct: expressed in transfected cells
Experimental: A test was carried out according to the method of Hillard et al. [The Journal of Pharmacology and Experimental Therapeutics, vol. 289, p. 1427 (1999)]. As for a membrane specimen, a membrane fraction was prepared from CHO-K1 cells in which a human CB2 receptor [Nature, vol. 365, pp. 61-65 (1993)] was stably expressed and used. The membrane specimen (final concentration: 40 μg of protein/mL) was incubated together with a test compound and [^35S]GTPγS (manufactured by PerkinElmer) (final concentration: 0.05 nmol/L) in an assay buffer (50 mmol/L Tris-HCl buffer (pH 7.4), 100 mmol/L NaCl, 1 mmol/L EDTA, 3 mmol/L MgCl2, and 0.1% bovine serum albumin) containing 20 μmol/L guanosine 5′-diphosphate (GDP) at 30° C. for 1 hour, and the resulting mixture was filtered using a glass filter GF/B (manufactured by Whatman). After the glass filter was washed with the assay buffer, the radioactivity on the glass filter was measured using a liquid scintillation counter (TRI-CARB 2700TR, manufactured by Packard). The binding amount in the presence of 10 μmol/L GTPγS was considered to be a non-specific binding amount, and a difference between the total binding amount and the non-specific binding amount was considered to be a specific binding amount. The ratio of increase in the specific binding amount in the presence of the test compound to the specific binding amount in the absence of the test compound was considered to be an agonistic activity of the test compound. The concentration of the test compound that produces 50% of the maximum effect (EC50 value) was calculated by performing a nonlinear regression analysis using the concentration-response data. The percentage of the maximum effect of the test compound (Emax value) was calculated by considering the maximum effect of CP55940 (manufactured by Tocris) measured at the same time as 100%.

[1] = system: rats with chronic constriction nerve injury; assay: Analgesic effect in rats with chronic constriction nerve injury (von Frey filament); format: in vivo, rat; details: oral, dose of 50 mg/kg or less, one hour after administration, von Frey filaments
From the text: Rats with chronic constriction nerve injury were produced by partially modifying the method of Mosconi and Kruger et al. (Pain, vol. 64, pp. 37-57 (1996))
Male Crl:CD(SD) rats were used for the experiments. Under pentobarbital anesthesia, the sciatic nerve of the left hind limb of the rat was exfoliated, and the exfoliated region was wrapped with a polyethylene tube (trade name: Intramedic, size: PE-60, manufactured by Becton Dickinson and Company) of 2 mm in length. On days 14 to 21 after the surgery, the rats were placed in an acrylic connected cage with a wire mesh floor (900 mm (length)×210 mm (depth)×140 mm (height)) consisting of 4 cages connected in a row and allowed to acclimate to the environment for at least 20 minutes, and then, the pain was evaluated.
The von Frey filament (trade name: touch test sensory evaluator, Model number: model 58011, manufactured by Muromachi Kikai) was used to evaluate pain, and the results were calculated as a pain threshold. That is, by using a von Frey filament of different stimulus intensity, stimulation was given to the plantar surface of the injured side of rats with chronic constriction nerve injury, and the stimulus intensity to cause paw withdrawal response was obtained. Then, the 50% pain threshold (Paw withdrawal threshold) (g) was calculated by the up down method of Dixon [Annual Review of Pharmacology and Toxicology, vol. 20, pp. 441-462 (1980)].
In the evaluation of the test compound, rats with 50% pain threshold of less than 4 g were used, and the test compound was dissolved in a 0.5% aqueous methyl cellulose solution and orally administered at a dose of 5 mL/kg. One hour after the administration, the pain threshold was measured using von Frey filaments.

T2 sequence (P34972 whole entry): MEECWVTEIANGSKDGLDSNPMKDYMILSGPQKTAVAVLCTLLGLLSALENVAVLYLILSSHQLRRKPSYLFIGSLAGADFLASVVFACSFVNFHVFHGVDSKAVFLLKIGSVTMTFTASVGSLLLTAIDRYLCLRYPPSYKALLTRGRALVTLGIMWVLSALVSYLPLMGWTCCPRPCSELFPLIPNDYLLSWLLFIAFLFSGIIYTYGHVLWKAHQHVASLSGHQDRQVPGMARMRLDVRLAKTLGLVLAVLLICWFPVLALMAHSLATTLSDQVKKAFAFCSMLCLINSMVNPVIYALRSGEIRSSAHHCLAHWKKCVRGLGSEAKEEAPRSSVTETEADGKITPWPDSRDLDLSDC

| SMILES | Ki (CB2 receptor) | EC50 (human CB2 receptor) | Emax (human CB2 receptor) | 50% pain threshold (paw withdrawal threshold) [1] |
| --- | --- | --- | --- | --- |
| CN(C(=O)c1cncc(-c2cn(CC3CCOCC3)c(C(C)(C)C)n2)n1)C1CC1 [Compound 205, 6-[2-tert-Butyl-1-(tetrahydropyran-4-ylmethyl)-1H-imidazol-4-yl]-N-cyclopropyl-N-methylpyrazine-2-carboxamide] | < 1000 nM | < 1000 nM | > 30% | significantly increased the pain threshold |
| CN(CC1CC1)C(=O)c1cncc(-c2cn(CC3CCOCC3)c(C(C)(C)C)n2)n1 [Compound 206, 6-[2-tert-Butyl-1-(tetrahydropyran-4-ylmethyl)-1H-imidazol-4-yl]-N-cyclopropylmethyl-N-methylpyrazine-2-carboxamide] | < 1000 nM | < 1000 nM | > 30% | significantly increased the pain threshold |
